Measured values as given in ChEMBL document CHEMBL6153167, “Development of the Pyrido[2,3-d]pyrimidin-7(8H)-one Scaffold toward Potent and Selective NUAK1 Inhibitors” (ACS Med Chem Lett, 2025).

Columns and labels:
[1] = Selectivity ratio of IC50 for inhibition of MARK3 (unknown origin) to IC50 for inhibition of NUAK1 (unknown origin)
[2] = Protein binding in mouse plasma assessed as fraction unbound at 10 uM incubated for 6 hrs with rotation by dialysis based LC-MS/MS analysis; assay type: ADME, cell-free
[3] = Unbound brain-to-plasma concentration ratio (Kp,uu, brain) in ICR mouse at 2.5 mg/kg, iv and measured upto 6 hrs by LC-MS/MS analysis; assay type: ADME, organism-based; settings: read-out: K(p,uu,brain)

Row | SMILES | Ratio IC50 [1] | fraction unbound at 6 h, 10 µM [2] | Kp uu at 6 h [3]
1 | CN1C2CC1CN(c1ccc(Nc3ncc4ccn(CC5CCOCC5)c4n3)cc1)C2 | 2000 | – | –
2 | Cc1cc(=O)n(C2CCCC2)c2nc(Nc3ccc(N4CCNCC4)cc3)ncc12 | > 11 | – | –
3 | CN1CCN(c2ccc(Nc3ncc4cc(C#N)c(=O)n(C5CCCC5)c4n3)cc2)CC1 [NARAZACICLIB] | – | 0.006 | 0.036
4 | CC(C)N1CCN(c2ccc(Nc3ncc4ccn(CC5CCOC(C)(C)C5)c4n3)cc2)CC1 (stereo not given) | 2290 | – | –
